Source: publication PMC7179653 (Antimicrobial Agents and Chemotherapy, 2020)
Like-named read-outs stand apart in the source and are kept apart here.

Assay: MAD study: nacubactam pharmacokinetics, multiple doses and single dose alone or with meropenem
Format: in vivo, human
Conditions: for CL renal at 7 days / CL renal: plasma and urine; for AUC(0-t): read-out: AUC0–8h; for Tmax at 7 days: day 7, n = 6, median (range)
Experimental: The MAD study consisted of three parts (Fig. 1). […] Participants were enrolled in two sequential cohorts (cohort 1, followed by cohort 2). […] Participants were also enrolled in two sequential cohorts (cohort 3, followed by cohort 4). […] A washout period of approximately 24 h between treatments was provided. Study treatments were administered as 30-min (SAD study) or 90-min (MAD study) i.v. infusions, the latter to investigate the pharmacokinetics using a longer infusion time, which is commonly used to increase the time above the MIC of β-lactams ([15]). The choice of a 90-min infusion time for the MAD study was dictated by the stability and toxicology data available at the time the study was being designed. […] Safety assessments included monitoring of AEs, laboratory safety tests (hematology, serum chemistry, and urinalysis), 12-lead ECG (discrete recordings and 24-h Holter recording), and vital signs (blood pressure, pulse rate, and body temperature). In the SAD study, safety assessments were performed predose at screening, at day 1, postdose periodically on days 1, 2, and 7 (follow-up), and at early withdrawal, if relevant. […] In the MAD study, safety assessments were done predose at screening, at day 2, postdose periodically on days 1, 2, 4, 7, and 8, on days 13 to 15 (follow-up), and at early withdrawal, if relevant. […] On all other days, a single predose sample was collected for pharmacokinetic evaluation prior to the morning infusion. Blood was collected into lithium-heparin tubes and stored at a nominal –80°C temperature until analysis.

[1] = MAD part 3, single dose (day 1 or 2) nacubactam 2,000 mg alone, geometric mean (%CV)
[2] = MAD part 3, single dose (day 3) nacubactam 2,000 mg plus meropenem 2,000 mg, geometric mean (%CV)
[3] = human, plasma, intravenous, 1000 mg, MAD part 1, 1,000 mg q8h for 7 days, day 7, n = 6, geometric mean (%CV)
[4] = human, plasma, intravenous, 2000 mg
[5] = human, plasma, intravenous, 2000 mg, MAD part 1, 2,000 mg q8h for 7 days, day 7, n = 6, geometric mean (%CV)
[6] = human, plasma, intravenous, 2000 mg, MAD part 3, single dose (day 1 or 2) nacubactam 2,000 mg alone, geometric mean (%CV)
[7] = human, plasma, intravenous, 4000 mg, MAD part 2, 4,000 mg q8h for 7 days, day 9, n = 6, geometric mean (%CV)
[8] = human, plasma, intravenous, MAD part 3, single dose (day 3) nacubactam 2,000 mg plus meropenem 2,000 mg, geometric mean (%CV)

NCCONC(=O)[C@@H]1CC[C@@H]2CN1C(=O)N2OS(=O)(=O)O [Nacubactam]
Fe%0–8h (cumulative percentage of dose excreted in urine from time zero to 8 h) (MAD part 1, 1,000 mg q8h for 7 days, day 7, n = 6, geometric mean (%CV)): 81.9 (1) %
Fe%0–8h (cumulative percentage of dose excreted in urine from time zero to 8 h) (MAD part 1, 2,000 mg q8h for 7 days, day 7, n = 6, geometric mean (%CV)): 87.0 (11) %
Fe%0–8h (cumulative percentage of dose excreted in urine from time zero to 8 h) (MAD part 2, 4,000 mg q8h for 7 days, day 9, n = 6, geometric mean (%CV)): 83.9 (9) %
Fe%0–8h (cumulative percentage of dose excreted in urine from time zero to 8 h) [1]: 85.5 (13) %
Fe%0–24h (cumulative percentage of dose excreted in urine from time zero to 24 h) [1]: 91.1 (10) %
Fe%0–8h (cumulative percentage of dose excreted in urine from time zero to 8 h) [2]: 82.7 (12) %
Fe%0–24h (cumulative percentage of dose excreted in urine from time zero to 24 h) [2]: 88.4 (11) %
accumulation in plasma (following 7 days of q8h dosing): minimal accumulation
route of elimination (following single and multiple doses): excreted largely unchanged into urine
contribution of nonrenal elimination processes on clearance (from difference between CL and CLR): < 20%
CL renal at 7 days (human, intravenous, 1000 mg, MAD part 1, 1,000 mg q8h for 7 days, day 7, n = 6, geometric mean (%CV)): 112 mL/min
CL renal at 7 days (human, intravenous, 2000 mg, MAD part 1, 2,000 mg q8h for 7 days, day 7, n = 6, geometric mean (%CV)): 104 mL/min
CL renal (human, intravenous, 2000 mg, MAD part 3, single dose (day 1 or 2) nacubactam 2,000 mg alone, geometric mean (%CV), read-out: CLR (converted)): 142 mL/min
CL renal at 7 days (human, intravenous, 4000 mg, MAD part 2, 4,000 mg q8h for 7 days, day 9, n = 6, geometric mean (%CV)): 113 mL/min
CL renal (human, intravenous, MAD part 3, single dose (day 3) nacubactam 2,000 mg plus meropenem 2,000 mg, geometric mean (%CV), read-out: CLR (converted)): 135 mL/min
CL renal (human, intravenous, single (1,000 to 8,000 mg) and multiple (1,000 to 4,000 mg) doses, read-out: estimated CLR, range): 91.7 to 142 mL/min
Cmax at 7 days [3]: 36.6 µg/mL
half-life [3]: 2.66 h
AUC(0-t) [3]: 118 µg·h/mL
clearance (human, plasma, intravenous, 1000 mg, MAD part 1, 1,000 mg q8h for 7 days, day 7, n = 6, geometric mean (%CV), read-out: CL (converted)): 142 mL/min
Vd at 7 days (human, plasma, intravenous, 1000 mg, MAD part 1, 1,000 mg q8h for 7 days, day 7, n = 6, geometric mean (%CV), read-out: Vss): 21.9 L
Tmax at 7 days (human, plasma, intravenous, 1000 mg, MAD part 1, 1,000 mg q8h for 7 days): 1 h
AUC(0-inf) [4]: 225 µg·h/mL
Cmax [4]: 66 µg/mL
Tmax [4]: 1 h
Cmax at 7 days [5]: 89.6 µg/mL
half-life [5]: 2.66 h
AUC(0-t) [5]: 279 µg·h/mL
clearance (human, plasma, intravenous, 2000 mg, MAD part 1, 2,000 mg q8h for 7 days, day 7, n = 6, geometric mean (%CV), read-out: CL (converted)): 119 mL/min
Vd at 7 days (human, plasma, intravenous, 2000 mg, MAD part 1, 2,000 mg q8h for 7 days, day 7, n = 6, geometric mean (%CV), read-out: Vss): 16.5 L
half-life [6]: 2.63 h
AUC(0-t) [6]: 201 µg·h/mL
clearance (human, plasma, intravenous, 2000 mg, MAD part 3, single dose (day 1 or 2) nacubactam 2,000 mg alone, geometric mean (%CV), read-out: CL (converted)): 148 mL/min
Tmax at 7 days (human, plasma, intravenous, 2000 mg, MAD part 1, 2,000 mg q8h for 7 days): 1.33 h
Vd (human, plasma, intravenous, 2000 mg, read-out: Vss): 26.2 L
Cmax at 7 days [7]: 179 µg/mL
half-life [7]: 2.69 h
AUC(0-t) [7]: 496 µg·h/mL
clearance (human, plasma, intravenous, 4000 mg, MAD part 2, 4,000 mg q8h for 7 days, day 9, n = 6, geometric mean (%CV), read-out: CL (converted)): 134 mL/min
Vd at 7 days (human, plasma, intravenous, 4000 mg, MAD part 2, 4,000 mg q8h for 7 days, day 9, n = 6, geometric mean (%CV), read-out: Vss): 20.1 L
half-life [8]: 2.38 h
AUC(0-t) [8]: 204 µg·h/mL
clearance (human, plasma, intravenous, MAD part 3, single dose (day 3) nacubactam 2,000 mg plus meropenem 2,000 mg, geometric mean (%CV), read-out: CL (converted)): 149 mL/min
clearance (human, plasma, intravenous, single (1,000 to 8,000 mg) and multiple (1,000 to 4,000 mg) doses, read-out: estimated CL, range on average): 120 to 148 mL/min
